According to the supplement of paper PMC8612539:
Values after ≈ are worked out from the molar mass of the structure shown.

How the values were obtained:
Enterococcus spp. = experiment: minimum inhibitory concentration (MIC)
Experimental: (§1)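 Broth microdilution MIC (Sensititre BOPO7F bovine plate, CLSI methods) of 19 antimicrobials against field isolates of P. multocida, M. haemolytica, H. somni (deep nasopharyngeal swabs) and E. coli, Enterococcus spp. (rectal swabs) from weaned dairy heifers. Incubation 16-24 h at 35 C. MIC is the lowest concentration preventing visible growth. Values with <= or > lie at the tested range limits. Trimethoprim-sulfamethoxazole is given as the trimethoprim component of a 1:19 mixture.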

Mannheimia haemolytica = experiment: minimum inhibitory concentration (MIC)
Experimental: as §1

CCCN1C[C@H](C)[C@@H](O)[C@](C)(O)[C@@H](CC)OC(=O)[C@H](C)[C@@H](O[C@H]2C[C@@](C)(OC)[C@@H](O)[C@H](C)O2)[C@H](C)[C@@H](O[C@@H]2O[C@H](C)C[C@H](N(C)C)[C@H]2O)[C@](C)(O)C[C@H]1C [Gamithromycin]
minimum inhibitory concentration [µg/mL]
Details | Enterococcus spp. | Mannheimia haemolytica
isolate (source animal id): 2 | ≤ 1 | –
isolate (source animal id): 8 | – | ≤ 1
isolate (source animal id): 13 | – | ≤ 1
isolate (source animal id): 18 | – | ≤ 1
isolate (source animal id): 21 | – | ≤ 1
isolate (source animal id): 25 | – | 4 (≈ 5.15 µM)
isolate (source animal id): 27 | – | 4 (≈ 5.15 µM)
isolate (source animal id): 28 | – | 2 (≈ 2.57 µM)
isolate (source animal id): 30 | – | ≤ 1
isolate (source animal id): 31 | – | 2 (≈ 2.57 µM)
isolate (source animal id): 32 | – | ≤ 1
isolate (source animal id): 34 | – | ≤ 1
isolate (source animal id): 35 | > 8 | –
isolate (source animal id): 36 | – | 4 (≈ 5.15 µM)
isolate (source animal id): 37 | – | 4 (≈ 5.15 µM)
isolate (source animal id): 40 | – | ≤ 1
isolate (source animal id): 41 | – | ≤ 1
isolate (source animal id): 42 | ≤ 1 | –
isolate (source animal id): 43 | – | ≤ 1
isolate (source animal id): 44 | 2 (≈ 2.57 µM) | –
isolate (source animal id): 46 | – | 4 (≈ 5.15 µM)
isolate (source animal id): 49 | – | 2 (≈ 2.57 µM)
isolate (source animal id): 50 | – | 4 (≈ 5.15 µM)
isolate (source animal id): 51 | – | ≤ 1
isolate (source animal id): 52 | – | ≤ 1
isolate (source animal id): 53 | – | ≤ 1
isolate (source animal id): 55 | – | ≤ 1
isolate (source animal id): 56 | – | ≤ 1
isolate (source animal id): 57 | – | > 8
isolate (source animal id): 79 | 2 (≈ 2.57 µM) | –
isolate (source animal id): 88 | ≤ 1 | –
isolate (source animal id): 91 | ≤ 1 | –
isolate (source animal id): 92 | 2 (≈ 2.57 µM) | –
isolate (source animal id): 100 | – | 2 (≈ 2.57 µM)
isolate (source animal id): 103 | – | 4 (≈ 5.15 µM)
isolate (source animal id): 107 | – | 2 (≈ 2.57 µM)
isolate (source animal id): 108 | – | 2 (≈ 2.57 µM)
isolate (source animal id): 111 | ≤ 1 | –
isolate (source animal id): 112 | – | > 8
isolate (source animal id): 113 | – | > 8
isolate (source animal id): 121 | – | 4 (≈ 5.15 µM)
isolate (source animal id): 122 | > 8 | 8 (≈ 10.3 µM)
isolate (source animal id): 123 | ≤ 1 | > 8
isolate (source animal id): 126 | – | > 8
isolate (source animal id): 133 | ≤ 1 | > 8
isolate (source animal id): 135 | – | > 8
isolate (source animal id): 138 | – | > 8
isolate (source animal id): 141 | – | > 8
isolate (source animal id): 142 | – | > 8
isolate (source animal id): 145 | – | 2 (≈ 2.57 µM)
isolate (source animal id): 149 | – | 2 (≈ 2.57 µM)
isolate (source animal id): 151 | – | 2 (≈ 2.57 µM)
isolate (source animal id): 152 | – | 4 (≈ 5.15 µM)
isolate (source animal id): 154 | – | ≤ 1
isolate (source animal id): 158 | > 8 | –
isolate (source animal id): 159 | – | > 8
isolate (source animal id): 162 | – | > 8
isolate (source animal id): 168 | ≤ 1 | –
isolate (source animal id): 169 | ≤ 1 | –
isolate (source animal id): 170 | – | 2 (≈ 2.57 µM)
isolate (source animal id): 171 | ≤ 1 | ≤ 1
isolate (source animal id): 172 | – | 2 (≈ 2.57 µM)
isolate (source animal id): 173 | – | 2 (≈ 2.57 µM)
isolate (source animal id): 175 | > 8 | –
isolate (source animal id): 177 | ≤ 1 | –
isolate (source animal id): 179 | – | ≤ 1
isolate (source animal id): 180 | – | ≤ 1
isolate (source animal id): 181 | ≤ 1 | –
isolate (source animal id): 182 | ≤ 1 | –
isolate (source animal id): 183 | 2 (≈ 2.57 µM) | ≤ 1
isolate (source animal id): 186 | – | ≤ 1
isolate (source animal id): 187 | ≤ 1 | 2 (≈ 2.57 µM)
isolate (source animal id): 188 | – | ≤ 1
isolate (source animal id): 190 | ≤ 1 | ≤ 1
isolate (source animal id): 191 | – | 2 (≈ 2.57 µM)
isolate (source animal id): 192 | – | ≤ 1
isolate (source animal id): 194 | ≤ 1 | –
isolate (source animal id): 195 | ≤ 1 | –
isolate (source animal id): 197 | ≤ 1 | –
isolate (source animal id): 201 | – | 2 (≈ 2.57 µM)
isolate (source animal id): 202 | – | 2 (≈ 2.57 µM)
isolate (source animal id): 209 | – | 2 (≈ 2.57 µM)
isolate (source animal id): 211 | ≤ 1 | 2 (≈ 2.57 µM)
isolate (source animal id): 214 | 4 (≈ 5.15 µM) | –
isolate (source animal id): 220 | – | 2 (≈ 2.57 µM)
isolate (source animal id): 221 | – | ≤ 1
isolate (source animal id): 222 | ≤ 1 | –
isolate (source animal id): 223 | ≤ 1 | 2 (≈ 2.57 µM)
isolate (source animal id): 228 | 8 (≈ 10.3 µM) | –
isolate (source animal id): 230 | 8 (≈ 10.3 µM) | –
isolate (source animal id): 233 | – | 2 (≈ 2.57 µM)
isolate (source animal id): 235 | > 8 | –
isolate (source animal id): 236 | ≤ 1 | –
isolate (source animal id): 237 | – | 4 (≈ 5.15 µM)
isolate (source animal id): 239 | 4 (≈ 5.15 µM) | –
isolate (source animal id): 241 | > 8 | 4 (≈ 5.15 µM)
isolate (source animal id): 244 | ≤ 1 | –
isolate (source animal id): 246 | ≤ 1 | –
isolate (source animal id): 247 | > 8 | –
isolate (source animal id): 250 | ≤ 1 | –
isolate (source animal id): 252 | > 8 | 8 (≈ 10.3 µM)
isolate (source animal id): 253 | – | 8 (≈ 10.3 µM)
isolate (source animal id): 259 | – | > 8
isolate (source animal id): 260 | – | 8 (≈ 10.3 µM)
isolate (source animal id): 262 | – | 4 (≈ 5.15 µM)
isolate (source animal id): 268 | > 8 | –
isolate (source animal id): 282 | ≤ 1 | > 8
isolate (source animal id): 285 | > 8 | –
isolate (source animal id): 287 | – | 8 (≈ 10.3 µM)
isolate (source animal id): 288 | – | ≤ 1
isolate (source animal id): 289 | ≤ 1 | –
isolate (source animal id): 290 | ≤ 1 | –
isolate (source animal id): 291 | – | ≤ 1
isolate (source animal id): 293 | – | 8 (≈ 10.3 µM)
isolate (source animal id): 296 | ≤ 1 | –
isolate (source animal id): 298 | ≤ 1 | > 8
isolate (source animal id): 299 | – | > 8
isolate (source animal id): 300 | – | ≤ 1
isolate (source animal id): 301 | ≤ 1 | –
isolate (source animal id): 302 | – | > 8
isolate (source animal id): 304 | – | > 8
isolate (source animal id): 306 | – | ≤ 1
isolate (source animal id): 308 | – | ≤ 1
isolate (source animal id): 309 | – | ≤ 1
isolate (source animal id): 310 | > 8 | –
isolate (source animal id): 313 | – | > 8
isolate (source animal id): 318 | – | 8 (≈ 10.3 µM)
isolate (source animal id): 320 | ≤ 1 | ≤ 1
isolate (source animal id): 321 | – | > 8
isolate (source animal id): 323 | – | > 8
isolate (source animal id): 324 | – | 8 (≈ 10.3 µM)
isolate (source animal id): 326 | – | > 8
isolate (source animal id): 328 | – | > 8
isolate (source animal id): 329 | – | > 8
isolate (source animal id): 331 | ≤ 1 | –
isolate (source animal id): 333 | ≤ 1 | > 8
isolate (source animal id): 335 | – | 8 (≈ 10.3 µM)
isolate (source animal id): 338 | – | 8 (≈ 10.3 µM)
isolate (source animal id): 341 | > 8 | –
